From patent publication US10052304B2, “Compositions and methods for cancer therapy” (UNIVERSITY OF IOWA RESEARCH FOUNDATION, priority 2015, dated 2018)
Values joined by “and” are separate entries in the source; they are usually repeats but may differ in a detail not shown here. Equal values may be shown once.

Columns and labels:
[1] = system: ARP1 myeloma cells; assay: Luciferase-labeled ARP1 myeloma xenograft, intravenous injection, NOD-SCID mice; type: in vivo; settings: ascorbate 4 g/kg daily
Text: The first model used is a luciferase labeled human myeloma cell line ARP1.

[2] = system: OPM2; assay: Colony formation on soft agar, OPM2 myeloma cells; type: cell-based, human; settings: 1 h treatment, colonies after 10-14 days
Text: (§1) A two-layer agar system was used, and colonies were visualized after 10-14 days.

[3] = system: U87 cells; assay: Clonogenic survival assay, U87 GBM cells; type: cell-based, human
Description: Treatment conditions for individual experiments are as described in the figure legends and summarized in the Supplemental Experimental Procedures.
1-2×10^5 cells were plated in 60 mm cell culture dishes and grown in their respective media for 48 h before exposed to experimental conditions. […] For AdGPx1 experiments, cells were supplemented with 50 nM sodium selenite following transduction and throughout clonogenic growth. […] After treatment, cells were washed with PBS and clonogenic assay was completed in their respective media. Briefly, floating and attached cells were collected and total cells per plate were counted. An experimentally derived number of cells were plated into each well of a 6-well cell culture plate in their respective media. For HEL92.1.7 suspension cells, cells were seeded in a top layer of 0.4% (w/v) agarose to allow for quantifiable colony formation. […] Normalized survival fractions were calculated by comparing plating efficiencies of each treatment group against the control group within a given experiment.

[4] = system: GBM subjects; assay: Phase I clinical trial of pharmacological ascorbate with radiation and temozolomide in GBM
Description: The study was broken into two phases: radiation phase and adjuvant phase. Radiation phase was defined as the time period from day 1 of radiation through adjuvant cycle 1, day 1.
Adjuvant phase was defined as the time period from cycle 1 day 1 through cycle 6 day 28. […] Prescribed doses utilized the same cohorts as the radiation phase. Subjects were dose-escalated after 2 infusions until a plasma level of 20 mM was achieved. […] Temozolomide was prescribed consistent with the Stupp regimen: 150 mg m^−2 for days 1 through 5 of a 28 day cycle. A one-time dose escalation was allowed to 200 mg/m^2 if cycle 1 was tolerated (FIG. 18A).
All subjects agreed to, and participate in, lifelong follow-up for this study. Subject numbers are for convenience and not representative of case ID numbers.
The study was broken into two phases: radiation phase and adjuvant phase. Radiation phase was defined as the time period from day 1 of radiation through adjuvant cycle 1, day 1. […] Cohorts were defined as 15 g, 25 g, 50 g, 62.5 g, 75 g, 87.5 g, 100 g, and 125 g. […] Adjuvant phase was defined as the time period from cycle 1 day 1 through cycle 6 day 28. […] Prescribed doses utilized the same cohorts as the radiation phase. Subjects were dose-escalated after 2 infusions until a plasma level of 20 mM was achieved. […] Temozolomide was prescribed consistent with the Stupp regimen: 150 mg m-2 for days 1 through 5 of a 28 day cycle. A one-time dose escalation was allowed to 200 mg/m2 if cycle 1 was tolerated (FIG. 18A). […] Dose limiting toxicities (DLTs) for the study included grade 4 infection, grade 3 nausea or vomiting despite maximum supportive care, grade 4 neutropenia or thrombocytopenia, and serious adverse events (SAE) with causality to the investigational agent. In addition to DLT, criteria for removal included progressive disease, patient's refusal to continue treatment, and extraordinary medical circumstances (e.g., the constraints of the protocol are considered detrimental to patient health). All subjects agreed to, and participate in, lifelong follow-up for this study. Subject numbers are for convenience and not representative of case ID numbers.

[5] = system: aconitase; assay: Total cellular aconitase activity after ascorbate exposure; type: cell-based, human; settings: 15 pmol cell^−1 ascorbate for 1 h, NSCLC cell lysates
Description: Exponentially growing cells were scraped and frozen as dry pellets until assayed for total activity. Aconitase activity was measured as the rate of appearance of NADPH (at 340 nm; Beckman DU 800 spectrophotometer, Brea, Calif.) for 45 min during the reaction of 200 μg total sample protein with 200 μM NADP^+ and 10 U isocitrate dehydrogenase as previously described (Case et al., 2011). Maximal ETC complex activity was measured as previously described (Birch-Machin et al., 1994). Complex I activity was quantified as the rate of rotenone-inhibitable NADH oxidation (320 nm; c=6.22 mM^−1 cm^−1). Complex II activity as the difference in the rate of DCIP reduction in the presence and absence of succinate (at 600 nm; ε=19.1 mM^−1 cm^−1). Complex IV activity was assayed as the rate of oxidation of cytochrome c ([…]; ε=19.6 mM^−1 cm^−1). Rates of activities were normalized to total protein by Lowry.
Exponentially growing cells were scraped and frozen as dry pellets until assayed for total aconitase activity adapted from as previously described (Case et al., 2011). […] Protein was quantified by the Lowry method (Lowry et al., 1951). Aconitase activity was measured as the rate of appearance of NADPH (at 340 nm; Beckman DU 800 spectrophotometer, Brea, Calif.) for 45 min during the reaction of 200 μg total sample protein with 200 μM NADP+ and 10 U isocitrate dehydrogenase.

[6] = Ascorbate quantification in mouse plasma, tumor and CSF after IP ascorbate; type: in vivo, mice
Description: Tumor xenografts were excised and flash frozen in liquid nitrogen until analysis. Mouse whole blood was collected by cardiac puncture, and plasma was collected after the sample was centrifuged at 500 g for 10 min and frozen until analysis. For patient samples, whole blood was collected from clinical trial patients (NaHeparin 75 USP units, BD Vacutainer® green top blood collection tube, 4 mL), and plasma was collected after centrifugation at 500 g for 10 min and aliquoted and stored at −80° C. until analysis.
Tumor xenografts were excised and flash frozen in liquid nitrogen until analysis. Mouse whole blood was collected by cardiac puncture, and plasma was collected after the sample was centrifuged at 500 g for 10 min and frozen until analysis. For patient samples, whole blood was collected from clinical trial patients (NaHeparin 75 USP units, BD Vacutainer® green top blood collection tube, 4 mL), and plasma was collected after centrifugation at 500 g for 10 min and aliquoted and stored at −80° C. until analysis. […] Briefly, samples were extracted in a buffer containing 90% methanol and 10% water with 250 μM DETAPAC (90:10, v/v), mixed, and incubated on ice for 10 min to precipitate protein. The samples were clarified by centrifugation (16 g, 10 min) with an Eppendorf model 5415D Microfuge. Specifically, samples were diluted at a ratio of 50 μL of plasma to 450 μL extraction buffer. These samples were then further diluted another 77.5 to 105-fold (therefore, 775-1,050 fold overall) in a buffer containing 72% methanol and 28% water with 250 μM DETAPAC (72:28, v/v). […] This protocol ensured that all samples had identical methanol content which is critical for accurate quantification (Vislisel et al., 2007). 100 μL aliquots of the samples or standards were placed in 96-well optical bottom black plates (Thermo Fisher Scientific, Rochester, N.Y., USA). The assay was initiated at room temperature by adding 100 μL of 2.3 mM 4-hydroxy-2,2,6,6-tetramethylpiperidinyloxyl (Tempol) in 2 M sodium acetate trihydrate buffer previously adjusted to pH 5.5 with acetic acid. […] Subsequently, 42 μL of 5.5 mM ortho-phenylenediamine (oPDA) in 2 M sodium acetate buffer (pH 5.5) was added to the samples. Kinetic measurements were immediately initiated and collected every 22 s using a TECAN SpectraFluor Plus plate reader (Tecan, Research Triangle Park, N.C., USA) for the fluorescent condensation product of the reaction of oPDA with DHA (3-dihydroxyethyl)furo[3,4-b]quinoxaline-1-one; λex=345 nm, λem=425 nm). […] Briefly, plasma samples were measured spectrophotometrically (265 nm; ε=13,000 M-1 cm-1) using an Implen Nanophotometer P-330 with a 250× dilution lid, path length=4.00×10-3 cm. The blank for each sample was a pair-‘pre-infusion’ plasma sample, which allowed removal of the background absorbance of plasma proteins and other constituents.
Briefly, mice were anesthetized (17.5 mg ml^−1 ketamine/2.5 mg ml^−1 xylazine mixture), restrained in a stereotaxic frame with an acute head angle, and the dura mater covering the foramen magnum was surgically exposed. CSF was collected by capillary action following minimal puncture of the dura mater and frozen until EPR analysis. Ascorbyl radical EPR spectra were obtained by placing the capillary tube into the bottom of a 250 mm×3 mm (ID) thin walled quartz EPR tube (707-SQ-250M Wilmad-Lab Glass, Vineland, N.J.) centered in a Bruker HS EPR cavity (Bruker, Billerica, Mass.). […]

[7] = system: U87 xenografts; assay: GBM (U87) flank xenograft model; type: in vivo, mice
Description: Female 4-6 week old female athymic-nu/nu mice were purchased from Envigo (previously Harlan Laboratories) and housed in the Animal Care Facility at the University of Iowa (Iowa City, Iowa), and all procedures were approved by the University of Iowa Institutional Animal Care and Use Committee and conformed to NIH guidelines. 1×10^6 H292 or U87 cells were injected subcutaneously into the right rear flank and mice were euthanized and sacrificed when tumor length exceeded 1.5 cm in any dimension.
1×10^6 H292 or U87 cells were injected subcutaneously into the right rear flank. […] Tumors were measured every other day with Vernier calipers (volume=(length×width×(width/2)) and mice were euthanized and sacrificed when tumor length exceeded 1.5 cm in any dimension.

[8] = system: ARP1; assay: Colony formation on soft agar, ARP1 myeloma cells; type: cell-based, human; settings: 1 h treatment, colonies after 10-14 days
Text: as §1

[9] = ascorbate + radiation + temozolomide
[10] = ascorbate + radiation + temozolomide, 11 subjects
[11] = Example 1: two hours after last radiation treatment, 4 g/kg IP
[12] = Example 4: 1 h after IP ascorbate 4 g kg^−1, H292 xenograft mice

For `O=C1O[C@H]([C@@H](O)CO)C(O)=C1O` [ascorbate, L-ascorbic acid], the tumor growth rate [1] was “significantly decreased tumor growth rate”, the “decrease of mean tumor fluorescent intensity vs control” value ([1]; approximately 15 days) was 59% and the “ascorbate dose giving complete growth inhibition (colony formation)” value [2] was no less than 10 pmol/cell. The “sensitization to temozolomide + IR (clonogenic survival)” value ([3]; 1 h ascorbate + 25 μM temozolomide + 2 Gy IR) was “selectively sensitized”, the “clonogenic survival / cell killing” value ([3]; ascorbate alone, increasing concentrations, 1 h) was “dose-dependent clonogenic cell killing” and the “desired therapeutic blood level (≥20 mM target plasma concentration) reached” value ([4]; 87.5 g infusions) was “achieved in all subjects”. The safety and tolerability ([4]; all 13 subjects, 15-125 g/infusion IV) was “safe and well tolerated”, the “patients that completed the radiation phase still living” value ([4]; as of 7/28/15) was 10 of 11 and the OS range [4, 9] was 7.3-29.3 m and 7.3-31.1 m. The PFS range [4, 9] was 3.4-29.3 m and 3.4-31.1 m, the “estimated median overall survival (Kaplan-Meier)” value [4, 9] was 28.4 months and the “mean progression free survival as of 7/28/15” value [4, 9] was 14 months. For the same compound, the “median OS” value [4, 9] was 15.5 m, the “median PFS” value [4, 9] was 9.4 m and the “average overall survival (OS)” value [4, 10] was 18.2 months. For the same compound, the “average progression free survival (PFS)” value [4, 10] was 11.9 months, the “current median overall survival (OS)” value [4, 10] was 16.5 months and the “median progression free survival (PFS)” value [4, 10] was 9.4 months. The “adverse events attributed to pharmacological ascorbate” value ([4]; in combination with radiation and temozolomide) was “no adverse events attributed to pharmacological ascorbate”, the subjects remaining alive ([4]; of 11 subjects in longevity analysis) was 7 and the aconitase activity [5] was “inactivation”. For the same compound, the “plasma ascorbate concentration vs non-ascorbate treated mice” value [6, 11] was “significantly higher”, the “tumor ascorbate concentration vs non-ascorbate treated mice” value [6, 11] was “significantly higher” and the “ascorbate level in plasma” value [6, 12] was “significantly increased ascorbate levels”. The “ascorbate level in tumor” value [6, 12] was “significantly increased ascorbate levels”, the “ascorbate level in cerebrospinal fluid (ascorbyl radical EPR)” value ([6]; Example 4: 1 h after IP ascorbate 4 g kg^−1, healthy nude mice) was “significantly increased ascorbate levels” and the “tolerability (mouse weight)” value ([7]; ascorbate 4 g kg^−1 IP daily) was “well tolerated”. For the same compound, the overall survival ([7]; ascorbate 4 g kg^−1 IP daily + 12 Gy IR/2 fractions + weekly 2.5 mg kg^−1 TMZ) was “significantly increased overall survival” and the “ascorbate dose giving complete growth inhibition (colony formation)” value [8] was no less than 10 pmol/cell.
